Measurements from US11202773B2, “Locally bioavailable drugs” (UNIVERSITY OF HOUSTON SYSTEM, priority 2015, dated 2021).
Marks after values point to notes of the source that are not given here.

What was measured:
[1] = from http://www.drugbank.ca/drugs/DB00482; cited from earlier work
human intestine S9 = assay: Sulfation by human intestine S9; assay type: in vitro ADME; settings: 10 μM, pH 7.4
Description: (§1) FIG. 5D is a bar graph illustrating in vitro metabolism of phenolics. Glucuronidation rates of 6a1-6a4 by human liver and intestinal microsomes. Additional metabolic rates of various locally bioavailable COX-2 inhibitors are in Table 4. […]. The incubation systems were: for glucuronidation, 0.88 mM magnesium chloride (MgCl2), 4.4 mM saccharolactone, 0.022 mg/mL alamethicin, 3.5 mM uridine 5′-diphospho-glucuronic acid (UDPGA), 10 μM substrates and different concentrations of microsomes in 50 mM potassium phosphate buffer (pH 7.4); for sulfation, 10 mM dithiothreitol (DTT), 5 mM MgCl2, 100 μM 3′-phosphoadenosine-5′-phosphosulfate (PAPS),10 μM substrate and different concentrations of S9 fractions in 50 mM potassium phosphate buffer (pH 7.4).
(§2) In vitro tools were employed to help predict the in vivo metabolism rates of the COX-2 inhibitors that are phenolics. The microsomes and S9 fractions prepared from colon or liver were used to determine the in vivo glucuronidation and sulfation rates of the phenolic compounds, respectively. By employing microsomes and S9 fractions prepared from both rats and humans, it could be determined if the results obtained in the rat model could be reasonably extrapolated to humans. In these experiments, raloxifene and genistein, two phenolic compounds which undergo extensive first-pass metabolism, were selected as controls.

rat liver microsomes = assay: Glucuronidation by rat liver microsomes; assay type: in vitro ADME; settings: rat, 10 μM, pH 7.4
Description: as §1, with “FIG. 5A” for “FIG. 5D”, “of phenolics via glucuronidation pathway.” for “of phenolics.”, “of all the new locally bioavailable COX-2 inhibitors” for “of 6a1-6a4”, “by rat” for “by human”, “liver” for “liver and intestinal”, “Table 3.” for “Table 4.”
as §2

[2] = test system: human intestine microsomes; assay: Glucuronidation by human intestine microsomes; assay type: in vitro ADME; settings: human, 10 μM, pH 7.4
Description: as §1, §2

rat colon microsomes = assay: Glucuronidation by rat colon microsomes; assay type: in vitro ADME; settings: rat, 10 μM, pH 7.4
Description: (§3) FIG. 5B is a bar graph illustrating in vitro glucuronidation of phenolics in liver and colon microsomes of rats. Glucuronidation rates of 6a1-6a4 by rat liver and colon microsomes were measured. Additional metabolic rates of various locally bioavailable COX-2 inhibitors are in Table 3. […]. The incubation systems were: for glucuronidation, 0.88 mM magnesium chloride (MgCl2), 4.4 mM saccharolactone, 0.022 mg/mL alamethicin, 3.5 mM uridine 5′-diphospho-glucuronic acid (UDPGA), 10 μM substrates and different concentrations of microsomes in 50 mM potassium phosphate buffer (pH 7.4); for sulfation, 10 mM dithiothreitol (DTT), 5 mM MgCl2, 100 μM 3′-phosphoadenosine-5′-phosphosulfate (PAPS), 10 μM substrate and different concentrations of S9 fractions in 50 mM potassium phosphate buffer (pH 7.4).
as §2

human liver S9 = assay: Sulfation by human liver S9; assay type: in vitro ADME; settings: 10 μM, pH 7.4
Description: as §1, §2

rat liver S9 = assay: Sulfation by rat liver S9 fractions; assay type: in vitro ADME; settings: 10 μM, pH 7.4
Description: as §3, with “FIG. 5C” for “FIG. 5B”, “vitro metabolism” for “vitro glucuronidation”, “phenolics via sulfonation pathway. Sulfation” for “phenolics in liver and colon microsomes of rats. Glucuronidation”, “colon S9 fractions.” for “colon microsomes were measured.”, “μM 3′-phosphoadeno sine-5′-phosphosulfate (PAPS),10” for “μM 3′-phosphoadenosine-5′-phosphosulfate (PAPS), 10”
as §2

human liver microsomes = assay: Glucuronidation by human liver microsomes; assay type: in vitro ADME; settings: human, 10 μM, pH 7.4
Description: as §1, §2

rat colon S9 = assay: Sulfation by rat colon S9 fractions; assay type: in vitro ADME; settings: 10 μM, pH 7.4
Description: as §3, with “FIG. 5C” for “FIG. 5B”, “vitro metabolism” for “vitro glucuronidation”, “phenolics via sulfonation pathway. Sulfation” for “phenolics in liver and colon microsomes of rats. Glucuronidation”, “colon S9 fractions.” for “colon microsomes were measured.”, “μM 3′-phosphoadeno sine-5′-phosphosulfate (PAPS),10” for “μM 3′-phosphoadenosine-5′-phosphosulfate (PAPS), 10”
as §2

Sulfation rates by human intestine S9 (Mean) (human intestine S9)	Glucuronidation rates by liver microsomes (Mean) (rat liver microsomes)	Glucuronidation rates by intestine microsomes (Mean) [2]	Glucuronidation rates by colon microsomes (Mean) (rat colon microsomes)	Sulfation rates by liver S9 (Mean) (human liver S9)	Sulfation rates by liver S9 (Mean) (rat liver S9)	Glucuronidation rates by liver microsomes (Mean) (human liver microsomes)	Sulfation rates by colon S9 (Mean) (rat colon S9)	SMILES	LogP [1]
–	–	–	–	–	–	–	–	Cc1ccc(-c2cc(C(F)(F)F)nn2-c2ccc(S(N)(=O)=O)cc2)cc1 [Celecoxib, celecoxib]	4.01^b
58 pmol/mg/min	402 pmol/mg/min	2846 pmol/mg/min	54 pmol/mg/min	19 pmol/mg/min	100 pmol/mg/min	681 pmol/mg/min	0 pmol/mg/min	O=C(c1ccc(OCCN2CCCCC2)cc1)c1c(-c2ccc(O)cc2)sc2cc(O)ccc12 [Raloxifene, reference compound]	–
